pEC50: −log10 of the molar value. Converted amounts (≈) assume the structure as drawn. Read-outs that look alike come from different tables or passages of the source. Positions of bridges follow the written chain, without caps; N, C: chain ends. Non-standard residues stand in square brackets, D forms with d. Residues, ends and D or L forms follow the SMILES beside them. Lys(N3) = [N-]=[N+]=NCCCC[C@H](N)C(=O)O; R8 = C=CCCCCCC[C@@](C)(N)C(=O)O; Cba = N[C@@H](CC1CCC1)C(=O)O; S5 = C=CCCC[C@](C)(N)C(=O)O; βAla = NCCC(=O)O
Tests used:
[1] = Lactate dehydrogenase (LDH) release assay; assay type: cell-based
Procedure, shortened: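 Geometric means of at least three independent biological runs are given for LDH release measured in HCT116 cells stably expressing a p53-driven β-lactamase reporter. Plating density was 8000 cells/well; DMSO in wells was 0.5%.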

[2] = Solubility assay (kinetic solubility, PBS pH 7); assay type: physicochemical; details: for solubility kinetic: pH 7, aqueous buffer, kinetic from dmso stock, read-out: Solubility
Procedure, shortened: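 Reference standards were made by diluting the 10 mM stock to 100 µM in acetonitrile:methanol:DMSO 10:80:10. Solubility in µM was calculated as the sample peak area divided by the standard peak area, multiplied by the standard concentration.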

Ca Ski cell line = details: 72 h
Procedure, shortened: (§1)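 Compound dilution series (10 points, 3-fold, 10 mM top stock in DMSO) tested on overnight-plated Ca Ski cells in RPMI1640/10% FBS and on blasticidin-selected p53RE-bla HCT-116 cells in McCoy's 5A; read-out was CellTiter-Glo 2.0 luminescence after room-temperature equilibration.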

[3] = test system: CellSensor p53RE-bla HCT-116 Cell Line; details: 72 h
Procedure, shortened: as §1

in vitro = details: Nanoclick permeability assay EC50
Procedure, shortened: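 Azido-peptide permeability was read as loss of NanoBRET signal (donor 450 nm, acceptor 610 nm) after adding NanoBret618-azide at 10 μM final.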

physchem [4] = assay: physchem
[5] = Experimental LogD (partition coefficient); details: for logD: not stated, Partition Coeff LogD
physchem [6] = assay: physchem; remark: listed apart in the source

| SMILES | pEC50 ([1]; LDH: Cytotoxicity assay EC50) | solubility kinetic ([2]; pH 7, PBS) [µM] | pEC50 (Ca Ski cell line) | pEC50 [3] | cell entry EC50 (in vitro) [µM] | EPSA (physchem [4]) [A^2] | logD [5] | pEC50 ([1]; LDH: Cytotoxicity assay: EC50) | EPSA (physchem [6]) [A^2] | Solubility ([2]; pH 7, PBS) | Partition Coeff LogD [5] | Solubility [2] | Partition Coeff LogD ([5]; experimental) | pEC50 ([1]; LDH Cytotoxicity assay EC50) |
| --- | --- | --- | --- | --- | --- | --- | --- | --- | --- | --- | --- | --- | --- | --- |
| CC(=O)N[C@@H](CCCCN=[N+]=[N-])C(=O)NCCC(=O)N[C@@H](CC(C)C)C(=O)N[C@H](C(=O)N[C@@H](Cc1ccccc1)C(=O)N[C@]1(C)CCCCCCC=CCCC[C@@](C)(C(=O)N[C@@H](Cc2c[nH]c3ccccc23)C(=O)N[C@@H](C)C(=O)N[C@@H](C)C(N)=O)NC(=O)[C@H](CC2CCC2)NC(=O)[C@H](CCC(N)=O)NC(=O)[C@H](C)NC(=O)[C@H](Cc2c[nH]c3ccccc23)NC(=O)[C@H](Cc2ccc(O)cc2)NC(=O)[C@H](CCC(=O)O)NC1=O)[C@@H](C)O [MP-188] (Ac-[Lys(N3)][βAla]LTF[R8]EYWAQ[Cba][S5]WAA-NH2; staple 6-13) | < 4.30 | 50 (≈ 103 µg/mL) | 4.52 | 5.32 | 0.374 | 249 | 3.33 |  |  |  |  |  |  |  |
| CC(=O)N[C@@H](CCCCN=[N+]=[N-])C(=O)NCCC(=O)N[C@H](C(=O)N[C@H](C(=O)N[C@@H](Cc1ccccc1)C(=O)N[C@]1(C)CCCCCCC=CCCC[C@@](C)(C(=O)N[C@@H](CO)C(=O)N[C@@H](C)C(=O)N[C@@H](C)C(N)=O)NC(=O)[C@H](CC2CCC2)NC(=O)[C@H](CCC(N)=O)NC(=O)[C@H](C(C)C)NC(=O)[C@H](Cc2c[nH]c3ccccc23)NC(=O)[C@H](Cc2ccc(O)cc2)NC(=O)[C@H](C(C)C)NC1=O)[C@@H](C)O)C(C)C [MP-490] (Ac-[Lys(N3)][βAla]VTF[R8]VYWVQ[Cba][S5]SAA-NH2; staple 6-13) |  | 3 (≈ 5.86 µg/mL) | < 4.30 | 6.09 | 1.37 |  | 4 | < 4.30 | 194 |  |  |  |  |  |
| CC(=O)N[C@@H](CCCCN=[N+]=[N-])C(=O)NCCC(=O)N[C@@H](Cc1ccccc1)C(=O)N[C@H](C(=O)N[C@@H](Cc1ccccc1)C(=O)N[C@]1(C)CCCCCCC=CCCC[C@@](C)(C(=O)N[C@@H](CO)C(=O)N[C@@H](C)C(=O)N[C@@H](C)C(N)=O)NC(=O)[C@H](CC2CCC2)NC(=O)[C@H](CCC(N)=O)NC(=O)[C@H](Cc2ccccc2)NC(=O)[C@H](Cc2c[nH]c3ccccc23)NC(=O)[C@H](Cc2ccc(O)cc2)NC(=O)[C@H](Cc2ccccc2)NC1=O)[C@@H](C)O [MP-492] (Ac-[Lys(N3)][βAla]FTF[R8]FYWFQ[Cba][S5]SAA-NH2; staple 6-13) |  | 3 (≈ 6.3 µg/mL) | < 4.30 | 5.60 | 0.16 |  | 4.21 | < 4.30 | 211 |  |  |  |  |  |
| CC(=O)N[C@@H](CCCCN=[N+]=[N-])C(=O)NCCC(=O)N[C@@H](CCCNC(=N)N)C(=O)N[C@H](C(=O)N[C@@H](Cc1ccccc1)C(=O)N[C@]1(C)CCCCCCC=CCCC[C@@](C)(C(=O)N[C@@H](CO)C(=O)N[C@@H](C)C(=O)N[C@@H](C)C(N)=O)NC(=O)[C@H](CC2CCC2)NC(=O)[C@H](CCC(N)=O)NC(=O)[C@H](C)NC(=O)[C@H](Cc2c[nH]c3ccccc23)NC(=O)[C@H](Cc2ccc(O)cc2)NC(=O)[C@H](CCC(=O)O)NC1=O)[C@@H](C)O [MP-552] (Ac-[Lys(N3)][βAla]RTF[R8]EYWAQ[Cba][S5]SAA-NH2; staple 6-13) | < 4.30 | 2 (≈ 4.03 µg/mL) | 4.40 | 5.36 | 0.0896 | 230 | 2.81 |  |  |  |  |  |  |  |
| CC(=O)N[C@@H](CCCCN=[N+]=[N-])C(=O)NCCC(=O)N[C@@H](CC(C)C)C(=O)N[C@@H](CCCNC(=N)N)C(=O)N[C@@H](Cc1ccccc1)C(=O)N[C@]1(C)CCCCCCC=CCCC[C@@](C)(C(=O)N[C@@H](CO)C(=O)N[C@@H](C)C(=O)N[C@@H](C)C(N)=O)NC(=O)[C@H](CC2CCC2)NC(=O)[C@H](CCC(N)=O)NC(=O)[C@H](C)NC(=O)[C@H](Cc2c[nH]c3ccccc23)NC(=O)[C@H](Cc2ccc(O)cc2)NC(=O)[C@H](CCC(=O)O)NC1=O [MP-553] (Ac-[Lys(N3)][βAla]LRF[R8]EYWAQ[Cba][S5]SAA-NH2; staple 6-13) | < 4.30 |  | < 4.30 | 5.17 | 0.174 | 232 | 2.86 |  |  | Poorly Behaved |  |  |  |  |
| CC(=O)N[C@@H](CCCCN=[N+]=[N-])C(=O)NCCC(=O)N[C@@H](CC(C)C)C(=O)N[C@H](C(=O)N[C@@H](Cc1ccccc1)C(=O)N[C@]1(C)CCCCCCC=CCCC[C@@](C)(C(=O)N[C@@H](CO)C(=O)N[C@@H](C)C(=O)N[C@@H](C)C(N)=O)NC(=O)[C@H](CC2CCC2)NC(=O)[C@H](CCC(N)=O)NC(=O)[C@H](C)NC(=O)[C@H](Cc2c[nH]c3ccccc23)NC(=O)[C@H](Cc2ccc(O)cc2)NC(=O)[C@H](CCCNC(=N)N)NC1=O)[C@@H](C)O [MP-554] (Ac-[Lys(N3)][βAla]LTF[R8]RYWAQ[Cba][S5]SAA-NH2; staple 6-13) | 4.52 |  | 4.94 | 5.24 | 0.586 | 215 | 3.28 |  |  | Poorly Behaved |  |  |  |  |
| CC(=O)N[C@@H](CCCCN=[N+]=[N-])C(=O)NCCC(=O)N[C@@H](CC(C)C)C(=O)N[C@H](C(=O)N[C@@H](Cc1ccccc1)C(=O)N[C@]1(C)CCCCCCC=CCCC[C@@](C)(C(=O)N[C@@H](CO)C(=O)N[C@@H](C)C(=O)N[C@@H](C)C(N)=O)NC(=O)[C@H](CC2CCC2)NC(=O)[C@H](CCC(N)=O)NC(=O)[C@H](CCCNC(=N)N)NC(=O)[C@H](Cc2c[nH]c3ccccc23)NC(=O)[C@H](Cc2ccc(O)cc2)NC(=O)[C@H](CCC(=O)O)NC1=O)[C@@H](C)O [MP-555] (Ac-[Lys(N3)][βAla]LTF[R8]EYWRQ[Cba][S5]SAA-NH2; staple 6-13) | < 4.30 | 2 (≈ 4.11 µg/mL) | < 4.30 | 5.20 | 0.249 | 220 | 2.92 |  |  |  |  |  |  |  |
| CC(=O)N[C@@H](CCCCN=[N+]=[N-])C(=O)NCCC(=O)N[C@@H](CC(C)C)C(=O)N[C@H](C(=O)N[C@@H](Cc1ccccc1)C(=O)N[C@]1(C)CCCCCCC=CCCC[C@@](C)(C(=O)N[C@@H](CCCNC(=N)N)C(=O)N[C@@H](C)C(=O)N[C@@H](C)C(N)=O)NC(=O)[C@H](CC2CCC2)NC(=O)[C@H](CCC(N)=O)NC(=O)[C@H](C)NC(=O)[C@H](Cc2c[nH]c3ccccc23)NC(=O)[C@H](Cc2ccc(O)cc2)NC(=O)[C@H](CCC(=O)O)NC1=O)[C@@H](C)O [MP-557] (Ac-[Lys(N3)][βAla]LTF[R8]EYWAQ[Cba][S5]RAA-NH2; staple 6-13) | < 4.30 |  | < 4.30 | 5.69 | 0.136 | 219 |  |  |  | Poorly Behaved | Poorly Behaved |  |  |  |
| CC(=O)N[C@@H](CCCCN=[N+]=[N-])C(=O)NCCC(=O)N[C@@H](Cc1ccc(O)cc1)C(=O)N[C@H](C(=O)N[C@@H](Cc1ccccc1)C(=O)N[C@]1(C)CCCCCCC=CCCC[C@@](C)(C(=O)N[C@@H](CO)C(=O)N[C@@H](C)C(=O)N[C@@H](C)C(N)=O)NC(=O)[C@H](CC2CCC2)NC(=O)[C@H](CCC(N)=O)NC(=O)[C@H](Cc2ccc(O)cc2)NC(=O)[C@H](Cc2c[nH]c3ccccc23)NC(=O)[C@H](Cc2ccc(O)cc2)NC(=O)[C@H](Cc2ccc(O)cc2)NC1=O)[C@@H](C)O [MP-694] (Ac-[Lys(N3)][βAla]YTF[R8]YYWYQ[Cba][S5]SAA-NH2; staple 6-13) |  | 9 (≈ 19.3 µg/mL) | < 4.30 | 5.52 | 0.453 |  | 3.22 | < 4.30 | 227 |  |  |  |  |  |
| CC(=O)N[C@@H](CCCCN=[N+]=[N-])C(=O)NCCC(=O)N[C@@H](CC(C)C)C(=O)N[C@H](C(=O)N[C@@H](Cc1ccccc1)C(=O)N[C@]1(C)CCCCCCC=CCCC[C@@](C)(C(=O)N[C@@H](C)C(=O)N[C@@H](C)C(=O)N[C@@H](C)C(N)=O)NC(=O)[C@H](CC2CCC2)NC(=O)[C@H](CCC(N)=O)NC(=O)[C@H](C)NC(=O)[C@H](Cc2c[nH]c3ccccc23)NC(=O)[C@H](Cc2ccc(O)cc2)NC(=O)[C@H](C)NC1=O)[C@@H](C)O [MP-8965] (Ac-[Lys(N3)][βAla]LTF[R8]AYWAQ[Cba][S5]AAA-NH2; staple 6-13) | < 4.30 |  | < 4.30 | 6.07 | 0.112 | 205 |  |  |  | Poorly Behaved | Poorly Behaved | P.B. | P.B. |  |
| CC(=O)N[C@@H](CCCCN=[N+]=[N-])C(=O)N[C@@H](CCCCN)C(=O)N[C@@H](CCCCN)C(=O)NCCC(=O)N[C@@H](C)C(=O)N[C@@H](C)C(=O)N[C@@H](Cc1ccccc1)C(=O)N[C@]1(C)CCCCCCC=CCCC[C@@](C)(C(=O)N[C@@H](C)C(=O)N[C@@H](C)C(=O)N[C@@H](C)C(N)=O)NC(=O)[C@H](CC2CCC2)NC(=O)[C@H](C)NC(=O)[C@H](C)NC(=O)[C@H](Cc2c[nH]c3ccccc23)NC(=O)[C@H](Cc2ccc(O)cc2)NC(=O)[C@H](C)NC1=O [MP-8967] (Ac-[Lys(N3)]KK[βAla]AAF[R8]AYWAA[Cba][S5]AAA-NH2; staple 8-15) | 4.78 |  | 4.87 | 4.92 | 0.575 | 223 | 2.75 |  |  | Poorly Behaved |  | P.B. |  | 4.77 |

Reference: PMC10786919, “Design-rules for stapled peptides with in vivo activity and their application to Mdm2/X antagonists” (Nature Communications, 2024)
